“And” between values parts separate entries of the source, which are not always exact repeats. Identical values can stand only once.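 Each compound was tested at five concentrations against cells in 96-well plates for 48 hours. GI50 is the concentration that inhibits growth by half. TGI denotes the concentration required for complete inhibition of growth.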
Columns and labels:
Assay in all cases: NCI-60 cell line screen, 48 h
[1] = system: KM12 colon
[2] = system: LOX IMVI melanoma
[3] = system: HOP-62 NSCLC
[4] = system: CCRF-CEM leukemia
[5] = system: HT29 colon
[6] = system: NCI-H23 lung
[7] = system: SR leukemia
[8] = system: IGROV1 ovarian
[9] = system: K-562 leukemia
[10] = system: NCI-H226 lung

Compound | TGI [1] [µM] | TGI [2] | TGI [3] [µM] | TGI [4] | TGI [5] [µM] | TGI [6] | TGI [7] | TGI [8] | TGI [9] | TGI [10] [µM] | GI50 [1] | GI50 [2] [µM] | GI50 [3] [µM] | GI50 [4] [µM] | GI50 [5] [µM] | GI50 [6] | GI50 [7] [µM] | GI50 [8] | GI50 [9] [µM] | GI50 [10] [µM]
C[N+](C)(C)CC1CCC(C[N+](C)(C)C)C1=NO (stereo not given) | > 100 | > 100 µM | > 100 | > 100 µM | > 100 | > 100 µM | > 100 µM | > 100 µM | > 100 µM | > 100 | – | – | – | – | – | – | – | – | – | –
[O]=[Sn]([CH]1CCCCC1)[CH]1CCCCC1 | 1.25 | 0.297 µM | 1.54 | 0.774 µM | 0.866 | 0.591 µM | 1.71 µM | 0.915 µM | – | 0.657 | 0.341 µM | 0.123 | 0.407 | 0.0488 | 0.298 | 0.198 µM | 0.312 | 0.274 µM | 0.117 | 0.229
COC1C(OC(=O)c2ccc(C)[nH]2)C(O)C(Oc2ccc3c(O)c(NC(=O)c4ccc(O)c(CC=C(C)C)c4)c(=O)oc3c2Cl)OC1(C)C (stereo not given) | 26.1 | 38.4 µM | 33.4 | 58.9 µM | 29.7 | 45.5 µM | 56.9 µM | 39.2 µM | > 100 µM | 36.7 | – | – | – | – | – | – | – | – | – | –
O=C(/C=C/c1ccc(O)c(O)c1)N1CCN(c2ccc(Cl)cc2)CC1 | 26.6 | 21.6 µM | 35.1 | 45.1 µM | 32 | 32 µM | 34 µM | 80.5 µM | 58.7 µM | 26.4 | 7.65 µM | 7.35 | 7.77 | 1.96 | 13.1 | 5.21 µM | 3.94 | 4.5 µM | 4.77 | 4.63
CN1CCCCC1CCN1c2ccccc2Sc2ccc(Br)cc21 (stereo not given) | 4.78 | 3.91 µM | 22.8 | 10.1 µM | 6.92 | 17.1 µM | 8.24 µM | 6.37 µM | 5.98 µM | 28.8 | 2.22 µM | 1.99 | 5.46 | 2.77 | 2.51 | 4.44 µM | 3.12 | 2.37 µM | 2.18 | 11.8
CC1(C)CC(O)CC(C)(C)N1O | > 100 | > 100 µM | > 100 | > 100 µM | > 100 | > 100 µM | > 100 µM | > 100 µM | > 100 µM | > 100 | – | > 100 | – | – | – | > 100 µM | – | – | – | > 100
Cc1ccc(-c2nc(NCCOCCOCCN)nc(N3CCN(c4ccccn4)CC3)n2)cc1 | 32.9 | 25.9 µM | 31.4 | 37.1 µM | 29.1 | 32 µM | 20.7 µM | 38 µM | 24.6 µM | 34.3 | 16.6 µM | 8.82 | 16.7 | 14.1 | 8.99 | 16.4 µM | 5.5 | 19.4 µM | 9.18 | 17.4
CC(C)=C[C@@H]1C[C@H](C)[C@H]2CC[C@H](C)c3c(O)c(OC4OC(C)C(O)C(O)C4O)c(C)c1c32 (stereo not given in full) | 8.16 | 24.4 µM | 34.7 | 26.3 µM | 15.6 | 20 µM | 10.4 µM | 26.8 µM | 19.6 µM | 33.1 | 2.63 µM | 11.8 | 19.2 | 12.8 | 4.07 | 2.21 µM | 2.59 | 13.7 µM | 3.97 | 17.3
NNc1c(C(N)=O)c2c(N)ncnc2n1C1OC(CO)C(O)C1O (stereo not given) | 12.4 | 0.13 µM and 1.2 µM | – | < 0.0483 µM and 0.12 µM | – | 0.266 µM and 0.319 µM | 0.0194 µM and 0.0639 µM | 1.12 µM and 3.54 µM | 16.3 µM and > 100 µM | – | 0.0453 µM and 0.0475 µM | 0.0349 | 0.124 | < 0.0146 | < 0.0118 | 0.0268 µM and 0.0507 µM | 0.0252 | 0.0276 µM and 0.0476 µM | 0.0199 | 0.251
Cc1cc(N2CCC(N3CCCC3)CC2)nc(/N=C(\N)Nc2ccc(Cl)c(Cl)c2)n1 | 3.64 | 3.35 µM | 3.8 | > 100 µM | 3.87 | 6.61 µM | > 100 µM | 5.11 µM | > 100 µM | 3.69 | 1.72 µM | 1.61 | 1.81 | 3.28 | 1.85 | 2.12 µM | 0.255 | 2.14 µM | 2.58 | 1.79
CCCC1C[C@H]2CCCCN2[C@H]2CCCN12 (stereo not given in full) | > 100 | > 55 µM | > 100 | > 68.6 µM | > 100 | > 100 µM | > 64 µM | > 100 µM | > 88.4 µM | > 100 | – | – | – | – | – | – | – | – | – | –
CC[C@H](C)[C@H](NC(=O)C12C3C4C1C1C2C3C41NC)C(=O)N(C)[C@H](C[C@@H](OC(C)=O)c1nc(C(=O)N[C@@H](Cc2ccccc2)C[C@H](C)C(=O)OC)cs1)C(C)C (stereo not given in full) | > 14.3 | > 14.3 µM | > 11.7 | > 14.3 µM | > 4.78 | > 14.3 µM | > 14.3 µM | > 14.3 µM | > 14.3 µM | > 14.3 | 0.517 µM | 0.493 | 1.18 | 0.445 | 0.29 | 0.705 µM | 0.0469 | 0.88 µM | 0.219 | > 7.85
Nc1nc(SCc2ccccc2CCl)c2[nH]cnc2n1 | 28.1 | 26.9 µM | 33.2 | > 100 µM | 35.6 | 36.5 µM | > 100 µM | 47.9 µM | > 100 µM | 34.4 | 14.8 µM | 12.7 | 17 | 28.5 | 17.1 | 15.7 µM | 24.8 | 14.5 µM | 32.4 | 17.1
COC(=O)CC1(O)C(=O)OCc2c1cc1n(c2=O)Cc2c-1nc1ccccc1c2OC (stereo not given) | > 100 | > 81.6 µM | 0.358 | 0.594 µM | > 100 | 1.68 µM | < 0.0136 µM | > 74.3 µM | > 100 µM | 0.688 | – | – | – | – | – | – | – | – | – | –
CC(=O)ON(OCc1ccc2ccccc2c1)C(C)=O | > 100 | > 100 µM | > 100 | > 100 µM | > 100 | > 100 µM | > 100 µM | > 100 µM | > 100 µM | > 100 | > 100 µM | 85.4 | > 100 | > 100 | > 100 | > 100 µM | 86.5 | > 100 µM | > 100 | > 100
O=[N+]([O-])c1ccccc1N=Nc1c(O)[nH]c2c(Cl)cccc12 | > 80.3 | 44.1 µM | 40.9 | > 100 µM | 99.4 | > 71.3 µM | > 69.6 µM | > 47.8 µM | > 100 µM | > 78.2 | – | – | – | – | – | – | – | – | – | –
S=c1ssnc1-c1cc2ccccc2o1 | 35.1 | 15.7 µM | 37.6 | > 100 µM | 29.3 | 75.5 µM | 18.3 µM | 29 µM | > 100 µM | 54.4 | 14.1 µM | 4.12 | 17.3 | 3.23 | 14.3 | 24.4 µM | 3.04 | 4.09 µM | 22.5 | 23.2
O=C(O)CNc1ccc2c(c1)Cc1cc(Br)ccc1-2 | 50.7 | > 100 µM | > 67.8 | > 100 µM | 97.4 | 49.3 µM | 1.31 µM | > 100 µM | > 40.9 µM | > 79.3 | – | – | – | – | – | – | – | – | – | –
O=C1/C(=C/c2ccc(Cl)cc2)CCC1CNc1ccc(Cl)cc1 (stereo not given) | 11.7 | 15.1 µM | 56.1 | 15.5 µM | 41.1 | 55.1 µM | 43.8 µM | 27.3 µM | 21.3 µM | 98 | – | – | – | – | – | – | – | – | – | –
Cc1nc2c(C)ccc([N+](=O)[O-])c2c(NCCCN(C)C)c1C | > 100 | > 100 µM | > 66.6 | > 100 µM | > 70.8 | > 100 µM | > 100 µM | > 100 µM | > 100 µM | > 100 | – | – | – | – | – | – | – | – | – | –
COc1cc(C(=O)c2cnc(-c3c[nH]c4cccc(C)c34)[nH]2)cc(OC)c1OC | > 100 | > 100 µM | 55.9 | > 100 µM | – | > 100 µM | > 100 µM | > 100 µM | 17.4 µM | – | 0.00482 µM | 0.0151 | 0.00809 | 0.00824 | 0.00643 | 0.0102 µM | – | 0.00842 µM and 0.0168 µM | 0.00363 | 0.00485
Nc1ccc(CC[C@H]2CCC/C=C/[C@@H]3C[C@H](O)C[C@H]3[C@H](O)/C=C/C(=O)O2)cc1 | 0.0615 | 0.0567 µM | – | > 64.9 µM | 0.577 | 1.06 µM | 7.51 µM | 0.175 µM | > 100 µM | 0.0704 | 0.0235 µM | 0.0231 | 0.0463 | 0.0437 | 0.0336 | 0.0379 µM | 0.0348 | 0.0367 µM | 0.043 | 0.0226
CNC(=O)CCN1CCN(CC/C=C2\c3ccccc3Sc3ccc(Cl)cc32)CC1 | 23.5 | 18.9 µM | 32.7 | 44.8 µM | 12.4 | 32.5 µM | 18.1 µM | 37.3 µM | > 37.1 µM | 37.9 | 7.53 µM | 5.15 | 14.6 | 6.31 | 3.11 | 14.4 µM | 4.19 | 15.1 µM | 4.2 | 19
